Assays:
[1] = Binding affinity to H-telo G-quadruplex DNA (unknown origin)
[2] = Binding affinity to double strand DNA (unknown origin)
[3] = Binding affinity to G-quadruplex RNA (unknown origin)
[4] = biological target: RAC-alpha serine/threonine-protein kinase (Homo sapiens, UniProt P31749); test: Inhibition of Akt1 (unknown origin)
[5] = Inhibition of CUG-RNA/MBLN1 (unknown origin) interaction
Beta-casein = biological target: T1, Beta-casein (Bos taurus, UniProt P02666); test: Binding affinity to bovine beta-casein A1
T1 sequence (P02666 whole entry): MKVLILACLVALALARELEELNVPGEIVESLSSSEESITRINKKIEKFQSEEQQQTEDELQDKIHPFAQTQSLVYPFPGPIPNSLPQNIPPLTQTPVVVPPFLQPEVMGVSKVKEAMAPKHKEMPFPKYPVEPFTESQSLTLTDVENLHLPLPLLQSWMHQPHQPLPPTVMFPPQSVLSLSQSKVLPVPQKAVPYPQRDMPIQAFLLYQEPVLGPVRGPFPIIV

Bcl-2-like protein 10 = biological target: T2, Bcl-2-like protein 10 (Homo sapiens, UniProt Q9HD36); test: Binding affinity to Bcl-b (unknown origin)
T2 sequence (Q9HD36 whole entry): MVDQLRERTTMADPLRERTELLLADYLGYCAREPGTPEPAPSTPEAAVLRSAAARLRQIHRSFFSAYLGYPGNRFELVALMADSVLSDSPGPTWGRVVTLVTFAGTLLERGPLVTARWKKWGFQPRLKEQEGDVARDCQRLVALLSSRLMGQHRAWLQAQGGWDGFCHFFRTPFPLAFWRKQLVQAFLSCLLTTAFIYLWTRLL

[6] = biological target: Cyclin-dependent kinase 1 (Homo sapiens, UniProt P06493); test: Inhibition of CDK1 (unknown origin)
[7] = biological target: T3, Glutathione S-transferase Mu 1 (Mus musculus, UniProt P10649); test: Inhibition of mouse GSTM1-1
T3 sequence (P10649 whole entry): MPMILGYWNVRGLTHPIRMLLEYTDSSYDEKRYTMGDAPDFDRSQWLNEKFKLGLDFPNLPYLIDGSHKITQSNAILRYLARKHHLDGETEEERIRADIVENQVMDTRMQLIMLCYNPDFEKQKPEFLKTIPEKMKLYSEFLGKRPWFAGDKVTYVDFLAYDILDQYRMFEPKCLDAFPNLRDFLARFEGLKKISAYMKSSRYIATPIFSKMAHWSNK

Acetylcholinesterase = Acetylcholinesterase (Homo sapiens, UniProt P22303); test: Inhibition of acetylcholine esterase (unknown origin)
Acetylcholinesterase, sequence (P22303 whole entry): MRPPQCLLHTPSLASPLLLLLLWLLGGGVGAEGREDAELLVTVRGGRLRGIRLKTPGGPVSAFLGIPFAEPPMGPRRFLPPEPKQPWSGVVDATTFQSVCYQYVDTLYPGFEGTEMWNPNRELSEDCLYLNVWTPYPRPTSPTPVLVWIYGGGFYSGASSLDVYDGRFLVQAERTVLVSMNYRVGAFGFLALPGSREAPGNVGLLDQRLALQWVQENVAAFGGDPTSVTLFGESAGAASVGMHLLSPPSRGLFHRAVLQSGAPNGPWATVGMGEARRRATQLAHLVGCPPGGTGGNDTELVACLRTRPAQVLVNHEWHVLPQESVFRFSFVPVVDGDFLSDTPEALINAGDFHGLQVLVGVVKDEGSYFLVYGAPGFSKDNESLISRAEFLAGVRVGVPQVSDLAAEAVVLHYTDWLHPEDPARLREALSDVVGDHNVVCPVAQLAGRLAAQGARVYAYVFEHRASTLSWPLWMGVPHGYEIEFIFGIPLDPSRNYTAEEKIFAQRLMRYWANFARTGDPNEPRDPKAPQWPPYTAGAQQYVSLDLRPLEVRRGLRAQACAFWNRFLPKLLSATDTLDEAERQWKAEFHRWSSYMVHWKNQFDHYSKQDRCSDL

RAC-alpha serine/threonine-protein kinase, sequence (P31749 whole entry): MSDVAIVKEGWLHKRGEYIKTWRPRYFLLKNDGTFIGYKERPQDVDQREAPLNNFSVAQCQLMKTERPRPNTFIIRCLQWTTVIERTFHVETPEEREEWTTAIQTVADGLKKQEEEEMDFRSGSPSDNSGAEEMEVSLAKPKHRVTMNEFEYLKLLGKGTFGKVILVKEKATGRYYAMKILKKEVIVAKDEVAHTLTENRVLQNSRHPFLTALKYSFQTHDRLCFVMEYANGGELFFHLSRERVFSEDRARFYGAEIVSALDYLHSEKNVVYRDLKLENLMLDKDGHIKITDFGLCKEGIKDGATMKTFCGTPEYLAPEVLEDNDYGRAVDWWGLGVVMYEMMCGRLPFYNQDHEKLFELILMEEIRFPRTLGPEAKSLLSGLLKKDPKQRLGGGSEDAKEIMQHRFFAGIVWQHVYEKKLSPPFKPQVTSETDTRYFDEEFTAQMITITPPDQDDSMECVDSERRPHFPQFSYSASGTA
Cyclin-dependent kinase 1, sequence (P06493 whole entry): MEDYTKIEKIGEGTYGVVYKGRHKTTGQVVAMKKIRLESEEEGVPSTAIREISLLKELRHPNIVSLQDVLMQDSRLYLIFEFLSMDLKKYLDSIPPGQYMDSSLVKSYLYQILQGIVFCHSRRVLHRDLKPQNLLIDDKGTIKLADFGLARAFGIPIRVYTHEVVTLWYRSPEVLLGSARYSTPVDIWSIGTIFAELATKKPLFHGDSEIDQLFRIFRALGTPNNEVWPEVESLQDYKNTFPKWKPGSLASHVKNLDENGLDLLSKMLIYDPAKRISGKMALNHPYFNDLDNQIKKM

Q: With `NCCOc1cc(NC(=O)c2cc(OCc3cn([C@H]4O[C@H](CO)[C@@H](O)[C@H](O)[C@H]4O)nn3)cc(C(=O)Nc3cc(OCCN)c4ccccc4n3)n2)nc2ccccc12` as the compound, how does the deltaTm [1] read?
A: 30 K

Q: What about the deltaTm [2] of the same compound?
A: 0 K

Q: Which deltaTm [3] does the source give for `NCCOc1cc(NC(=O)c2cc(OCc3cn(CCC(=O)O)nn3)cc(C(=O)Nc3cc(OCCN)c4ccccc4n3)n2)nc2ccccc12` here?
A: 20.7 K

Q: With `CC[C@H](C)[C@H](NC(=O)[C@H](CCCNC(=N)N)NC(=O)[C@H](CCC(=O)O)NC(=O)[C@H](Cc1cnc[nH]1)NC(=O)[C@H](CCCNC(=N)N)NC(=O)C(CCCCCCCCn1cc(CCCC(=O)NC(CCCCCCCCn2cc(C[C@H](NC(C)=O)C(=O)N[C@@H](Cc3ccccc3)C(=O)N[C@@H](Cc3c[nH]c4ccccc34)C(=O)N[C@@H](Cc3ccccc3)C(=O)N[C@@H](CC(C)C)C(=O)N[C@@H](CCCNC(=N)N)C(=O)NCC(N)=O)nn2)C(=O)N[C@H](C(=O)N[C@@H](Cc2ccccc2)C(=O)N[C@@H](Cc2ccc(O)cc2)C(=O)N[C@@H](CCCNC(=N)N)C(=O)N[C@@H](CC(C)C)C(=O)NCC(=O)N[C@@H](Cc2ccc(O)cc2)C(=O)NCCNC(=O)CCCC[C@H]2SC[C@H]3NC(=O)N[C@H]32)C(C)C)nn1)NC(C)=O)C(N)=O` (stereo partly drawn) as the compound, how does the Kd [4] read?
A: 200 nM

Q: With `CCc1nc2ccccc2cc1C(=O)N1CCC[C@H]1C(=O)N[C@H](CSSC[C@@H](NC(=O)[C@@H]1CCCN1C(=O)c1cc2ccccc2nc1CC)C(=O)N[C@@H](CCCCN)C(=O)NCCCN)C(=O)N[C@@H](CCCCN)C(=O)NCCCN` as the compound, how does the Ki [5] read?
A: 3600 nM

Q: For `CN(C)CC[C@H](CSc1ccccc1)Nc1ccc(S(=O)(=O)NC(=O)c2ccc(N3CCN(Cc4ccccc4-c4ccc(Cl)cc4)CC3)cc2)cc1[N+](=O)[O-]` [ABT 737], which Ki (Beta-casein) is on record?
A: > 1 nM

Q: And the Ki (Bcl-2-like protein 10)?
A: > 1 nM

Q: Which results are given for `O=C(Nc1cc(OCCN2CCCC2)c2ccccc2n1)c1cc(OCc2cn([C@H]3O[C@H](CO)[C@@H](O)[C@H](O)[C@H]3O)nn2)cc(C(=O)Nc2cc(OCCN3CCCC3)c3ccccc3n2)n1`?
A: deltaTm [1]: 28 K; deltaTm [2]: 0.1 K

Q: For `c1ccc2[nH]c(-c3cc[nH]n3)nc2c1`, which IC50 [6] is on record?
A: 28000 nM

Q: With `C[C@H](NC(=O)c1cccc(C(=O)N[C@@H](C)C(=O)N/N=C/c2ccc(SC[C@H](NC(=O)CC[C@H](N)C(=O)O)C(=O)NCC(=O)O)c([N+](=O)[O-])c2)c1)C(=O)N/N=C/c1ccc(SC[C@H](NC(=O)CC[C@H](N)C(=O)O)C(=O)NCC(=O)O)c([N+](=O)[O-])c1` as the compound, how does the IC50 [7] read?
A: 50 nM

Q: Which IC50 (Acetylcholinesterase) does the source give for `C[N+](C)(C)CCCCCCCCCC[N+](C)(C)C` [DECAMETHONIUM BROMIDE] here?
A: 1000 nM

Q: For `O=C(C[n+]1ccccc1)N/N=C/c1ccc(/C=N/NC(=O)C[n+]2ccccc2)cc1`, which IC50 (Acetylcholinesterase) is on record?
A: 2.3 nM

Source: ChEMBL document CHEMBL3351920, “Biased and unbiased strategies to identify biologically active small molecules” (Bioorg Med Chem, 2014)
